Legend:
[1] = system: NG isolate from the Phase 2 clinical trial with ParC D86N mutation; type: cell-based, Neisseria gonorrhoeae
Protocol: 10 mL of an initial bacterial density of 10^6 colony forming units (CFU)/mL was inoculated into the hollow-fiber cartridge (Fibercell Systems, Frederick, Md.), utilizing modified FB medium.
Samples were collected for observation of simulated pharmacokinetic profiles and enumeration of bacterial burden over the study duration. All bacterial samples were plated on drug-free and agar supplemented with 2×the agar MIC value of each respective challenge compound.

[2] = Single-dose PK (saliva, urine, plasma) in subjects with renal impairment and matched controls; type: in vivo, human
Protocol: Gepotidacin exposures were assessed in plasma and other matrices, such as urine, saliva, epithelial lining fluid (ELF), Alveolar Macrophages (AM), cervix, rectum and pharynx, as follows: • 1. Plasma, Epithelial Lining Fluid (ELF) and Alveolar Macrophage (AM) samples: A study to evaluate plasma and pulmonary pharmacokinetics (PK) following intravenous administration of gepotidacin in healthy adult subjects was conducted (see M Hossain, EF Dumont. Population Pharmacokinetic Modeling of Plasma and Epithelial Lining Fluid Data for a Novel Antimicrobial Compound. 54th Annual Interscience Conference on Antimicrobial Agents and Chemotherapy Meeting, 5-9 September 2014, Washington, D.C., USA, incorporated herein by reference in its entirety) • 2. Saliva, Urine and plasma samples: • a. A single-dose study to assess the PK of oral gepotidacin in male and female adult participants with varying degrees of hepatic impairment and in matched control participants with normal hepatic function (J. Hands et al. Pharmacokinetics of Gepotidacin in Subjects with Hepatic Impairment. ID Week, 2-6 Oct. 2019, Washington D.C., USA, incorporated herein by reference in its entirety) • b. A single-dose study to assess the PK of gepotidacin in adult subjects with varying degrees of renal impairment and in matched control subjects with normal renal function • 3. Urine, plasma, cervix, rectum and pharynx swabs: • In a Phase 2a, single-center, single-arm, open-label study in the Unites States from July 2018 to January 2019 (see Overcash et al., Open Forum Infectious Diseases, Volume 6, Issue Supplement 2, October 2019, Page S539, https://doi.org/10.1093/ofid/ofz360.1343, incorporated herein by reference in its entirety), a total of 22 female participants with uncomplicated Urinary Tract Infection (uUTI) were enrolled and evaluated for pharmacokinetics (PK), safety, and clinical efficacy. Participants were confined to the clinic from baseline (Days −1 to 1 predose) through on-therapy (Days 1 to 5) and returned as outpatients for test-of-cure (TOC; Days 10 to 13) and follow-up (Day 28±3). Participants received oral gepotidacin 1,500 mg twice daily (BID) for 5 days. […] The majority of participants were white, age ranged from 19 to 60 years, and body mass index ranged from 20.9 to 37.9 kg/m^2. The number of past uUTI episodes ranged from 0 to 10 over the past 12 months across participants; the majority of participants reported episodes. […] Gepotidacin exposures in urine, cervix, rectum and pharynx were assessed.
(§1) Saliva, Urine and Plasma concentrations were determined after administration of gepotidacin 750 mg IV (healthy and renally impaired subjects) and 1500 mg orally (healthy and hepatically impaired subjects, as well as uUTI patients). […]

[3] = Phase 2a study in female participants with uUTI: urine, plasma, cervix, rectum and pharynx swab PK and safety; type: in vivo, human
Protocol: (§2) Gepotidacin exposures were assessed in plasma and other matrices, such as urine, saliva, epithelial lining fluid (ELF), Alveolar Macrophages (AM), cervix, rectum and pharynx, as follows: • 1. […] Urine, plasma, cervix, rectum and pharynx swabs: • In a Phase 2a, single-center, single-arm, open-label study in the Unites States from July 2018 to January 2019 (see Overcash et al., Open Forum Infectious Diseases, Volume 6, Issue Supplement 2, October 2019, Page S539, https://doi.org/10.1093/ofid/ofz360.1343, incorporated herein by reference in its entirety), a total of 22 female participants with uncomplicated Urinary Tract Infection (uUTI) were enrolled and evaluated for pharmacokinetics (PK), safety, and clinical efficacy. […] Gepotidacin exposures in urine, cervix, rectum and pharynx were assessed.
as §1

[4] = Single-dose PK (saliva, urine, plasma) in participants with hepatic impairment and matched controls; type: in vivo, human; details: 1500 mg orally
Protocol: as §2, §1

[5] = Plasma and pulmonary (ELF, AM) pharmacokinetics after intravenous gepotidacin in healthy adult subjects; type: in vivo, human; details: single IV infusion 1000 mg over 2 hours
Protocol: as §2
Plasma, Epithelial Lining Fluid (ELF) and Alveolar Macrophage (AM) PK were assessed following a single IV infusion of 1000 mg gepotidacin over 2 hours. […]

[6] = Safety and pharmacokinetics in healthy adults and adolescents (Example 3); type: in vivo, human
Protocol: Healthy adults and adolescents within the age ranges of 19-64 and 12-17 years old, respectively, participated in the study.
In Part 1 of the study, gepotidacin was administered with food to healthy adults 18 years) in period 1 (1500 mg oral single dose), followed by period 2 (3000 mg×2 oral doses Q12 h) and period 3 (3000 mg×2 oral doses Q6 h).
In Part 2 of the study, gepotidacin was administered with food to adolescents (12 to <18 years) at the same dose regimens as period 1 (1500 mg oral single dose) and period 3 (3000 mg×2 oral doses Q6 h).

Neisseria gonorrhoeae = details: cited from earlier work
[7] = Period 1, 1500 mg oral single dose

Question: Which “performance of control in hollow fibre infection model” value ([1]; simulated ciprofloxacin 0.5 g oral, ceftriaxone 0.25 g intramuscular, isolate ciprofloxacin-resistant, ceftriaxone-susceptible) does the source give for CO/N=C(\C(=O)N[C@@H]1C(=O)N2C(C(=O)O)=C(CSc3nc(=O)c(=O)[nH]n3C)CS[C@H]12)c1csc(N)n1 [ceftriaxone, reference compound] here?
Answer: performed as expected

Question: With O=c1ccc2ncc(=O)n3c2n1C[C@H]3CN1CCC(NCc2cc3c(cn2)OCCC3)CC1 [gepotidacin, (2R)-2-({4-[(3,4-Dihydro-2H-pyrano[2,3-c]pyridin-6-ylmethyl)amino]-1-piperidinyl}methyl)-1,2-dihydro-3H,8H-2a,5,8a-triazaacenaphthylene-3,8-dione] as the compound, how does the “gepotidacin dose removed in the urine (fe %)” value ([2]; ESRD subjects not on hemodialysis) read?
Answer: 7.9%

Question: And the “gepotidacin dose excreted in the urine” value ([2]; ESRD subjects on hemodialysis)?
Answer: Less than 2%

Question: What about the “gepotidacin dose removed in the urine (fe %)” value ([2]; moderate renal impairment subjects) of the same compound?
Answer: 22.1%

Question: And the “gepotidacin dose removed in the urine (fe %)” value ([2]; normal renal function subjects)?
Answer: 37.4%

Question: What about the “rank order of gepotidacin free-drug concentrations” value ([3]; 1500 mg BID, uUTI patients, swabs and plasma) of the same compound?
Answer: highest in rectal tissue; followed by cervical tissue, which was similar to plasma concentrations; followed by pharyngeal tissue

Question: What about the “discontinuations due to adverse events” value ([3]; oral 1,500 mg BID for 5 days, 22 female uUTI participants) of the same compound?
Answer: no discontinuations due to adverse events

Question: What about the “urinary exposure (AUC[0-48]) relative to matched healthy controls” value ([4]; moderate hepatic impairment) of the same compound?
Answer: approximately 3.2 fold

Question: And the “urinary exposure (AUC[0-48]) relative to matched healthy controls” value ([4]; severe hepatic impairment)?
Answer: ~3.9 fold

Question: And the “AM AUC(0-12) relative to ELF” value [5]?
Answer: ~97 fold

Question: And the “AM Cmax relative to ELF” value [5]?
Answer: approximately 120 fold

Question: And the tolerability ([6]; 1500 mg oral single dose, adults and adolescents, few mild GI AEs)?
Answer: generally well tolerated

Question: What about the “maximum concentration (Cmax), adolescents compared to adults” value [6, 7] of the same compound?
Answer: similar

Question: And the “median area under the curve (AUC), adolescents compared to adults” value [6, 7]?
Answer: slightly higher

Question: And the “AUC following the second dose, adolescents versus adults” value ([6]; Period 3, 3000 mg x 2 Q6 h)?
Answer: higher

Question: And the “Cmax following the second dose, adolescents versus adults” value ([6]; Period 3, 3000 mg x 2 Q6 h)?
Answer: similar

Question: And the “subjects above the Cmax value of potential clinical concern” value (shortened to “subjects above the Cmax value”) ([6]; adolescents, 3000 mg x 2 Q6 h)?
Answer: 58%

Question: And the “AUC0-t following the first dose, Q12 h versus Q6 h” value ([6]; adults, 3000 mg)?
Answer: similar

Question: What about the “accumulation ratios, Q6 h compared to Q12 h” value ([6]; adults, 3000 mg x 2) of the same compound?
Answer: Higher

Question: And the “subjects above the Cmax value” value ([6]; adults, 3000 mg x 2 Q6 h)?
Answer: 46%

Question: And the “subjects above the Cmax value” value ([6]; adults, 3000 mg x 2 Q12 h)?
Answer: 15%

Question: And the “safety issues related to QT or AchE-I” value ([6]; in vivo)?
Answer: No observed safety issues related to QT or AchE-I

Question: And the “doses preventing amplification of resistance within the system” value ([1]; gepotidacin-resistant subpopulation on Day 7)?
Answer: 4.5 g

Question: What about the “total daily doses that prevented resistance amplification to gepotidacin” value ([1]; including 2 x 3 g doses 8 or 12 hours apart) of the same compound?
Answer: ≥ 4500 mg

Question: And the “doses sterilizing the system over the seven-day period” value ([1]; simulated single oral dose free-drug plasma profiles, 0.75 to 12 g)?
Answer: ≥ 4.5 g

Question: What about the “microbiological successes (bacterial eradication)” value (Neisseria gonorrhoeae; number of the 8 participants with D86N-positive baseline urogenital NG isolates) of the same compound?
Answer: 5

Question: What about the “efficacy (bacterial eradication) against urogenital infection caused by NG” value (Neisseria gonorrhoeae; single oral doses of 1.5 g and 3 g) of the same compound?
Answer: ≥ 95%

Question: And the safety signals (Neisseria gonorrhoeae; single oral doses of 1500 and 3000 mg)?
Answer: no unexpected safety signals

Question: And the “participants who failed therapy at the urogenital body site” value (Neisseria gonorrhoeae; total number, single oral 1500 or 3000 mg)?
Answer: 3
